Common to all, as to assay type: cell-based
The subject of experiment [1] is Escherichia Coli MC 4100 AcrAB. Briefly: MIC broth microdilution, E. coli MC 4100 AcrAB (ΔAcrAB). The settings on record: E. coli AcrAB.
In experiment [2] the test system is Staphylococcus aureus ATCC 29213. Briefly: MIC broth microdilution, S. aureus ATCC 29213 (wild type). The settings on record: S. aureus ATCC 29213. (In general: Dilution methods test growth across graded concentrations, often in twofold steps.)
Experiment [3] has as its system Staphylococcus aureus 8325-4. Description: MIC broth microdilution, S. aureus 8325-4 (wild type). The settings on record: S. aureus 8325-4.
The subject of experiment [4] is Pseudomonas aeruginosa PAM 1154. Briefly: MIC broth microdilution, P. aeruginosa PAM 1154 (OprM::Hg). The settings on record: P. aeruginosa PAM 1154 OprM::Hg.
The subject of experiment [5] is Escherichia Coli MC 4100 AcrAB UPA3r. Description: MIC broth microdilution, E. coli MC 4100 AcrAB UPA3r (ΔAcrAB, UPA resistant). To be noted: E. coli AcrAB UPA3^r.
A further experiment deals with Escherichia Coli MC 4100. Briefly: MIC broth microdilution, E. coli MC 4100 (wild type). The settings on record: E. coli MC 4100.
Experiment [6] relates to Pseudomonas aeruginosa PAM 1020. Briefly: MIC broth microdilution, P. aeruginosa PAM 1020 (wild type). The settings on record: P. aeruginosa PAM 1020.
Experiment [7] concerns Pseudomonas aeruginosa PAM 1135. Description: MIC broth microdilution, P. aeruginosa PAM 1135 (high level UPA resistance). To be noted: P. aeruginosa PAM 1135 UPA1^r.
Experiment [8] has as its system Pseudomonas aeruginosa PAM 1323. Description: MIC broth microdilution, P. aeruginosa PAM 1323 (medium level UPA resistance).
The subject of experiment [9] is Pasteurella multocida pm002. Description: MIC broth microdilution, P. multocida pm002 (wild type).

In brackets after ≈: the same amount, converted by molar mass.

With `C[C@H](N)C(=O)N(C)[C@@H](C)[C@H](NC(=O)[C@H](Cc1ccc(F)c(F)c1)NC(=O)N[C@@H](Cc1ccc(O)cc1)C(=O)O)C(=O)NC[C@H]1C[C@@H](O)[C@H](n2ccc(=O)[nH]c2=O)O1` [Compound 144, 1-[5′-[(2S,3S)-N^3-L-Alanyl-N^2-[N-[[(1S)-1-carboxy-4-hydroxyphenethyl]carbamoyl]-L-(3,4)-difluorophenylalanyl]-N^3-methyl-2,3-diaminobutyramido)-3′,5′-dideoxy-α-L-arabinofuranosyl]uracil], the “MIC (μg/ml) Broth microdilution” value in experiment [1] was below 1 µg/mL; in experiment [2], above 512 µg/mL; in experiment [3] it was 512 µg/mL (≈ 638 µM); in [4], 8 µg/mL (≈ 9.97 µM); in [5], below 1 µg/mL; in the experiment with Escherichia Coli MC 4100 it was 4 µg/mL (≈ 4.98 µM). Moreover, the “MIC (μg/ml) Broth microdilution” value in experiment [6] is 64 µg/mL (≈ 79.7 µM); in [7], above 512 µg/mL; in experiment [8], above 512 µg/mL; in experiment [9], 256 µg/mL (≈ 319 µM).
For the compound `C[C@H](N)C(=O)N(C)[C@@H](C)[C@H](NC(=O)[C@H](Cc1ccc(C(F)(F)F)cc1)NC(=O)N[C@@H](Cc1ccc(O)cc1)C(=O)O)C(=O)NC[C@H]1C[C@@H](O)[C@H](n2ccc(=O)[nH]c2=O)O1` [Compound 145, 1-[5′-[(2S,3S)-N^3-L-Alanyl-N^2-[N-[[(1S)-1-carboxy-4-hydroxyphenethyl]carbamoyl]-L-4-(trifluoromethyl)phenylalanyl]-N^3-methyl-2,3-diaminobutyramido]-3′,5′-dideoxy-α-L-arabinofuranosyl]uracil], the “MIC (μg/ml) Broth microdilution” value in experiment [1] was 4 µg/mL (≈ 4.79 µM); in experiment [2] it was above 512 µg/mL; in experiment [3], above 512 µg/mL; in experiment [4], 32 µg/mL (≈ 38.3 µM); in [5] it was 128 µg/mL (≈ 153 µM); against Escherichia Coli MC 4100, 512 µg/mL (≈ 613 µM). Moreover, the “MIC (μg/ml) Broth microdilution” value is 256 µg/mL (≈ 307 µM) in experiment [6], above 512 µg/mL in experiment [7], above 512 µg/mL in experiment [8] and 512 µg/mL (≈ 613 µM) in [9].
In the case of `CC(N)C(=O)N(C)C(C)C(NC(=O)C(CCCCN)NC(=O)NC(Cc1c[nH]c2ccccc12)C(=O)O)C(=O)NCC1CC(O)C(n2ccc(=O)[nH]c2=O)O1` [Compound 148, 1-[5′-[(2S,3S)-N^3-L-Alanyl-N^2-[N-[[(1S)-1-carboxy-2-indol-3-ylethyl]carbamoyl]-L-lysinyl]-N^3-methyl-2,3-diaminobutyramido]-3′,5′-dideoxy-α-L-arabinofuranosyl]uracil], the “MIC (μg/ml) Broth microdilution” value was above 512 µg/mL in experiment [1]; above 512 µg/mL in experiment [2]; above 512 µg/mL in [3]; 8 µg/mL (≈ 10.4 µM) in [4]; above 512 µg/mL in [5]; above 512 µg/mL against Escherichia Coli MC 4100. Further, the “MIC (μg/ml) Broth microdilution” value was 128 µg/mL (≈ 166 µM) in experiment [6], above 512 µg/mL in experiment [7], above 512 µg/mL in [8] and above 512 µg/mL in [9].
Regarding `C[C@H](N)C(=O)N(C)[C@@H](C)[C@H](NC(=O)[C@H](Cc1ccccc1)NC(=O)N[C@@H](Cc1c[nH]cn1)C(=O)O)C(=O)NC[C@H]1C[C@@H](O)[C@H](n2ccc(=O)[nH]c2=O)O1` [Compound 149], the “MIC (μg/ml) Broth microdilution” value is 16 µg/mL (≈ 21.6 µM) in experiment [1]; above 512 µg/mL in experiment [2]; above 512 µg/mL in experiment [3]; 8 µg/mL (≈ 10.8 µM) in experiment [4]; 64 µg/mL (≈ 86.4 µM) in experiment [5]; 512 µg/mL (≈ 691 µM) against Escherichia Coli MC 4100. In addition, the “MIC (μg/ml) Broth microdilution” value in [6] is 512 µg/mL (≈ 691 µM); in [7], above 512 µg/mL; in experiment [8] it was above 512 µg/mL; in experiment [9] it was 256 µg/mL (≈ 346 µM).
Regarding `C[C@@H]([C@H](NC(=O)[C@H](Cc1ccccc1)NC(=O)N[C@@H](Cc1ccc(O)cc1)C(=O)O)C(=O)NC[C@H]1C[C@@H](O)[C@H](n2ccc(=O)[nH]c2=O)O1)N(C)C(=O)[C@@H](N)COCc1ccccc1` [Compound 150, 1-[5′-[(2S,3S)-N^3-(L-O-Benzylserinyl)-N^2-[N-[[(1S)-1-carboxy-4-hydroxyphenethyl]carbamoyl]-L-phenylalanyl]-N^3-methyl-2,3-diaminobutyramido]-3′,5′-dideoxy-α-L-arabinofuranosyl]uracil], the “MIC (μg/ml) Broth microdilution” value is 8 µg/mL (≈ 9.16 µM) in experiment [1]; above 512 µg/mL in experiment [2]; above 512 µg/mL in [3]; 64 µg/mL (≈ 73.3 µM) in [4]; 512 µg/mL (≈ 587 µM) in experiment [5]; 512 µg/mL (≈ 587 µM) against Escherichia Coli MC 4100. Also, the “MIC (μg/ml) Broth microdilution” value is 256 µg/mL (≈ 293 µM) in [6], 256 µg/mL (≈ 293 µM) in [7], 256 µg/mL (≈ 293 µM) in [8] and 512 µg/mL (≈ 587 µM) in [9].
Regarding `CN[C@@H](C)[C@H](NC(=O)[C@H](Cc1ccccc1)NC(=O)N[C@@H](Cc1c[nH]c2ccccc12)C(=O)O)C(=O)NC[C@H]1C[C@@H](O)[C@H](n2ccc(=O)[nH]c2=O)O1` [Compound 151, 1-[5′-[(2S,3S)-N^2-[N-[[(1S)-1-Carboxy-2-indol-3-ylethyl]carbamoyl]-L-phenylalanyl]-N^3-methyl-2,3-diaminobutyramido]-3′,5′-dideoxy-α-L-arabinofuranosyl]uracil], the “MIC (μg/ml) Broth microdilution” value was 4 µg/mL (≈ 5.57 µM) in experiment [1]; above 512 µg/mL in experiment [2]; above 512 µg/mL in [3]; 32 µg/mL (≈ 44.5 µM) in experiment [4]; 128 µg/mL (≈ 178 µM) in [5]; 512 µg/mL (≈ 712 µM) against Escherichia Coli MC 4100. The “MIC (μg/ml) Broth microdilution” value in experiment [6], in [7], in experiment [8] and in experiment [9] was 256 µg/mL (≈ 356 µM) in each case.
Take `C[C@H](N)C(=O)N(C)[C@@H](C)[C@H](NC(=O)[C@H](Cc1ccc2ccccc2c1)NC(=O)N[C@@H](Cc1ccc(O)cc1)C(=O)O)C(=O)NC[C@H]1C[C@@H](O)[C@H](n2ccc(=O)[nH]c2=O)O1` [Compound 152, 1-[5′-[(2S,3S)-N^3-L-Alanyl-N^2-[N-[[(1S)-1-carboxy-4-hydroxyphenethyl)carbamoyl]-L-3-(2-naphthyl)alanyl]-N^3-methyl-2,3-diaminobutyramido]-3′,5′-dideoxy-α-L-arabinofuranosyl]uracil]: the “MIC (μg/ml) Broth microdilution” value is 2 µg/mL (≈ 2.45 µM) in experiment [1]; above 512 µg/mL in experiment [2]; above 512 µg/mL in experiment [3]; 64 µg/mL (≈ 78.3 µM) in experiment [4]; 64 µg/mL (≈ 78.3 µM) in experiment [5]; 256 µg/mL (≈ 313 µM) against Escherichia Coli MC 4100. In addition, the “MIC (μg/ml) Broth microdilution” value was 256 µg/mL (≈ 313 µM) in [6], above 512 µg/mL in [7], above 512 µg/mL in [8] and above 512 µg/mL in experiment [9].
On to `C[C@H](N)C(=O)N(C)[C@@H](C)[C@H](NC(=O)[C@H](Cc1ccc2ccccc2c1)NC(=O)N[C@@H](Cc1c[nH]c2ccccc12)C(=O)O)C(=O)NC[C@H]1C[C@@H](O)[C@H](n2ccc(=O)[nH]c2=O)O1` [Compound 153], for which the “MIC (μg/ml) Broth microdilution” value amounted to 2 µg/mL (≈ 2.38 µM) in experiment [1]; 512 µg/mL (≈ 610 µM) in [2]; 256 µg/mL (≈ 305 µM) in experiment [3]; 16 µg/mL (≈ 19 µM) in [4]; 128 µg/mL (≈ 152 µM) in [5]; 512 µg/mL (≈ 610 µM) in the experiment on Escherichia Coli MC 4100. Besides, the “MIC (μg/ml) Broth microdilution” value in experiment [6] was 128 µg/mL (≈ 152 µM); in [7] it was above 512 µg/mL; in [8], above 512 µg/mL; in experiment [9], 64 µg/mL (≈ 76.2 µM).
With `CC(C)CC(NC(=O)NC(Cc1ccc(O)cc1)C(=O)O)C(=O)NC(C(=O)NCC1CC(O)C(n2ccc(=O)[nH]c2=O)O1)C(C)N(C)C(=O)C(C)N` [Compound 161, 1-[5′-[(2S,3S)-N^3-L-Alanyl-N^2-[N-[[(1S)-1-carboxy-4-hydroxyphenethyl)carbamoyl]-L-leucyl]-N^3-methyl-2,3-diaminobutyramido]-3′,5′-dideoxy-α-L-arabinofuranosyl]uracil], the “MIC (μg/ml) Broth microdilution” value in experiment [1] is 32 µg/mL (≈ 43.7 µM); in experiment [2], above 512 µg/mL; in experiment [3], above 512 µg/mL; in [4] it was 8 µg/mL (≈ 10.9 µM); in experiment [5], 256 µg/mL (≈ 349 µM); against Escherichia Coli MC 4100, above 512 µg/mL. Moreover, the “MIC (μg/ml) Broth microdilution” value in [6] is 16 µg/mL (≈ 21.8 µM); in experiment [7], above 512 µg/mL; in experiment [8], 256 µg/mL (≈ 349 µM); in experiment [9], 512 µg/mL (≈ 699 µM).

For the origin of these results see patent publication US6482921B1, “Uridyl peptide antibiotic (UPA) derivatives, their synthesis and use” (Essential Therapeutics, Inc., priority 1999, dated 2002).
